From EP4745135A1 (Gluetacs Therapeutics (Shanghai) Co., Ltd., priority 2023, dated 2025)
Read-outs that look alike come from different tables or passages of the source.

Experiments:
[1] = target: T1, IKZF3 (Homo sapiens, UniProt Q96SW2+Q9UKT9); experiment: Western blot, degradation of substrate protein in hPBMCs; format: cell-based; conditions: Western blot, 24 hours of compound treatment, compounds tested at 50 nM and 500 nM (concentration for the table not stated)
T1 construct: effects of the compounds of the present disclosure on the expression of target proteins in cells; endogenous in cells; host or cells: human PBMCs (Milecell Biotechnologies)
T1 sequence (Q9UKT9 whole entry): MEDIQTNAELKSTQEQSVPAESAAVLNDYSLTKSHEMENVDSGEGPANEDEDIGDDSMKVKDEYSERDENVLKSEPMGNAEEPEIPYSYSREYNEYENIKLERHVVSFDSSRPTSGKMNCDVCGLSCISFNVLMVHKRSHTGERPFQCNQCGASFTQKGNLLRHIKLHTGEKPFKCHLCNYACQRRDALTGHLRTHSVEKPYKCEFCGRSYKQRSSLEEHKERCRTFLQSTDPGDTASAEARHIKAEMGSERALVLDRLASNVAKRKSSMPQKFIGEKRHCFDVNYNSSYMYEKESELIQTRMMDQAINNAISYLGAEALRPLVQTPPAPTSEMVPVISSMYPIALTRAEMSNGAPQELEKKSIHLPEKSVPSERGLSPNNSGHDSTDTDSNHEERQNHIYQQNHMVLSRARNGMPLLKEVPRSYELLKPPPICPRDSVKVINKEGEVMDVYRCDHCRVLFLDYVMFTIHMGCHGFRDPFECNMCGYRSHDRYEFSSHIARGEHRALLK
T1 sequence (Q96SW2 whole entry): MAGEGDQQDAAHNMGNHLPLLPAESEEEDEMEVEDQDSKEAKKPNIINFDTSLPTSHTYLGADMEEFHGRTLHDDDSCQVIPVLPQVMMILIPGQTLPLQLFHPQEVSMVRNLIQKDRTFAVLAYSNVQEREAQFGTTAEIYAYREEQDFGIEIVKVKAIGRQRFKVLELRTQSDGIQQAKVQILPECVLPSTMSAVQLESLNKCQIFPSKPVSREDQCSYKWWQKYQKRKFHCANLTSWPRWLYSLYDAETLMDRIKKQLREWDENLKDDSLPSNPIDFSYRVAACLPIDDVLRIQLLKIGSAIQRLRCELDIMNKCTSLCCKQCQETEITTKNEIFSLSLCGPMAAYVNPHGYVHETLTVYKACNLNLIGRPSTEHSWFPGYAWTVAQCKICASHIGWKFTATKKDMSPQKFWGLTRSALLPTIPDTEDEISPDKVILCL
T1 sequence (Q16531 whole entry partner): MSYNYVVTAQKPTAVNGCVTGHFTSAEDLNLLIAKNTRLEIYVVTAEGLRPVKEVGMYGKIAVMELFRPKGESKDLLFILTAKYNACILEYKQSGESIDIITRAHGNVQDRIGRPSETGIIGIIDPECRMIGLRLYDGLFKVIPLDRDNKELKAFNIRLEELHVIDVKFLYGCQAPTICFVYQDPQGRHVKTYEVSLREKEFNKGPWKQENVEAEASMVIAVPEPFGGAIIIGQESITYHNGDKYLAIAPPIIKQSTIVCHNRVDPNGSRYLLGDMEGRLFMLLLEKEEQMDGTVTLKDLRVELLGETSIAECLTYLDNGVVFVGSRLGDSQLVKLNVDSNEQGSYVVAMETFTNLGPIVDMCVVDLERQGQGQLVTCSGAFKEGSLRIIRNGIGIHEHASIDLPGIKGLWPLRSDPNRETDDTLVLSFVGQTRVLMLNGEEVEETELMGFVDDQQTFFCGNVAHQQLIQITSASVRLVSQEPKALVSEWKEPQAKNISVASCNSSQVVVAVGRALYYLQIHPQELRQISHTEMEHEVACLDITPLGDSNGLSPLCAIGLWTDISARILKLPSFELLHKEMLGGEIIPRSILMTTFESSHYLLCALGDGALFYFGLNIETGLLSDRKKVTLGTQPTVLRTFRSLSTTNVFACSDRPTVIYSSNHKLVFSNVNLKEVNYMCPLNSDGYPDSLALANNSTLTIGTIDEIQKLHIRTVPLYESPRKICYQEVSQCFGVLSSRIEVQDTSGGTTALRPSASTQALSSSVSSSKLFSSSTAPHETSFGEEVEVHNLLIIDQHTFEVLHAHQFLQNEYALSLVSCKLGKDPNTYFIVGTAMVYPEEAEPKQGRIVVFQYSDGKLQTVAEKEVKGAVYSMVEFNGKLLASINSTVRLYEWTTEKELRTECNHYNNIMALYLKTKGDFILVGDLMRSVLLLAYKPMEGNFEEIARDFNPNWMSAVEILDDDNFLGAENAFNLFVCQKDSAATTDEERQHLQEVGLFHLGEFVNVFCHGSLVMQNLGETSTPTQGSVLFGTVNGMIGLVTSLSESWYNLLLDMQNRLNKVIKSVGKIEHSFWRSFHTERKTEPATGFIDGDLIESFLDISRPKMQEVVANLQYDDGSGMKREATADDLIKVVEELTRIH

[2] = target: T2, IKZF1 (Homo sapiens, UniProt Q13422+Q96SW2); experiment: as above; format: cell-based; conditions: Western blot, 24 hours of compound treatment, compounds tested at 50 nM and 500 nM (concentration for the table not stated)
T2 construct: effects of the compounds of the present disclosure on the expression of target proteins in cells; endogenous in cells; host or cells: human PBMCs (Milecell Biotechnologies)
T2 sequence (Q13422 whole entry): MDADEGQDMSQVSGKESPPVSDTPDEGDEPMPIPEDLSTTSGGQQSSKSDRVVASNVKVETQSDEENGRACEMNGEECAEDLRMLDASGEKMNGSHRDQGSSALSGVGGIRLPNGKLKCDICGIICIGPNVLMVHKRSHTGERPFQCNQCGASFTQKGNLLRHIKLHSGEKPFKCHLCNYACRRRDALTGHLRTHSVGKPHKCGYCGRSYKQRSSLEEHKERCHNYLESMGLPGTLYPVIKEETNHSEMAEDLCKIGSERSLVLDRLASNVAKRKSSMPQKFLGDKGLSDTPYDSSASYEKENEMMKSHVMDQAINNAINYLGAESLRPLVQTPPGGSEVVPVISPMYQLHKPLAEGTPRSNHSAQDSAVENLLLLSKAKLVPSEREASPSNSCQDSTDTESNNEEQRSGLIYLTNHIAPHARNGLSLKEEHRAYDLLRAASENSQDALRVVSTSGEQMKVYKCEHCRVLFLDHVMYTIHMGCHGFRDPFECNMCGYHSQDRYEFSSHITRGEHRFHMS
T2 sequence (Q96SW2 whole entry): as the sequence (Q96SW2 whole entry) above
T2 sequence (Q16531 whole entry partner): as the sequence (Q16531 whole entry partner) above

[3] = target: T3, WEE1 (Homo sapiens, UniProt P30291+Q96SW2); experiment: as above; format: cell-based; conditions: Western blot, 24 hours of compound treatment, compounds tested at 50 nM and 500 nM (concentration for the table not stated)
T3 construct: effects of the compounds of the present disclosure on the expression of target proteins in cells; endogenous in cells; host or cells: human PBMCs (Milecell Biotechnologies)
T3 sequence (P30291 whole entry): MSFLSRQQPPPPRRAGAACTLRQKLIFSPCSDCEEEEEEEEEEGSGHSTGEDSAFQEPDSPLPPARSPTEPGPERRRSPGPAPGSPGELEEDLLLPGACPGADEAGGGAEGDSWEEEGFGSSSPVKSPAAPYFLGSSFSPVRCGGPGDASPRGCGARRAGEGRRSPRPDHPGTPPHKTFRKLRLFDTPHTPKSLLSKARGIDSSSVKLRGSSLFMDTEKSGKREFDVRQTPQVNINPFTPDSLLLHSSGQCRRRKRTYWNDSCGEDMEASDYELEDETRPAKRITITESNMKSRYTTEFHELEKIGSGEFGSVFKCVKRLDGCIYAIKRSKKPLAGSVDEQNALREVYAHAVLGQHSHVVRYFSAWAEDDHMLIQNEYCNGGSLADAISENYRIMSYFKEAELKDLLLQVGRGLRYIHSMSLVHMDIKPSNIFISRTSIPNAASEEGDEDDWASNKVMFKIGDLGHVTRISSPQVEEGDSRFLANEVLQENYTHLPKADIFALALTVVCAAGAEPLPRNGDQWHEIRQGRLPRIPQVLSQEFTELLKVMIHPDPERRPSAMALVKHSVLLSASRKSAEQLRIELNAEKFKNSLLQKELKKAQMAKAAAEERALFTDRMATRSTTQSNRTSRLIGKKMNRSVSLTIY
T3 sequence (Q96SW2 whole entry): as the sequence (Q96SW2 whole entry) above
T3 sequence (Q16531 whole entry partner): as the sequence (Q16531 whole entry partner) above

[4] = target: T4, CK1α (Homo sapiens, UniProt P48729+Q96SW2); experiment: as above; format: cell-based; conditions: Western blot, 24 hours of compound treatment, compounds tested at 50 nM and 500 nM (concentration for the table not stated)
T4 construct: effects of the compounds of the present disclosure on the expression of target proteins in cells; endogenous in cells; host or cells: human PBMCs (Milecell Biotechnologies)
T4 sequence (P48729 whole entry): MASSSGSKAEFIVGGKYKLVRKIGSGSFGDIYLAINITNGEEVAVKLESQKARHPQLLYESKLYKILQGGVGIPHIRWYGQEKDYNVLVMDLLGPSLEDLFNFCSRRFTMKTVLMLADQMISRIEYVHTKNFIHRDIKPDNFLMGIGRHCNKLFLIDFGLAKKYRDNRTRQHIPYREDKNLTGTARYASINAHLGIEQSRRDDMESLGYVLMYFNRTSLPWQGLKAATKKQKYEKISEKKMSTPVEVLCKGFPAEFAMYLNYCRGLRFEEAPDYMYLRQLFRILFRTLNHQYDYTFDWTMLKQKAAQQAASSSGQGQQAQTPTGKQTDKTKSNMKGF
T4 sequence (Q96SW2 whole entry): as the sequence (Q96SW2 whole entry) above
T4 sequence (Q16531 whole entry partner): as the sequence (Q16531 whole entry partner) above

[5] = target: T5, IKZF2 (Homo sapiens, UniProt Q96SW2+Q9UKS7); experiment: as above; format: cell-based; conditions: Western blot, 24 hours of compound treatment, compounds tested at 50 nM and 500 nM (concentration for the table not stated)
T5 construct: effects of the compounds of the present disclosure on the expression of target proteins in cells; endogenous in cells; host or cells: human PBMCs (Milecell Biotechnologies)
T5 sequence (Q9UKS7 whole entry): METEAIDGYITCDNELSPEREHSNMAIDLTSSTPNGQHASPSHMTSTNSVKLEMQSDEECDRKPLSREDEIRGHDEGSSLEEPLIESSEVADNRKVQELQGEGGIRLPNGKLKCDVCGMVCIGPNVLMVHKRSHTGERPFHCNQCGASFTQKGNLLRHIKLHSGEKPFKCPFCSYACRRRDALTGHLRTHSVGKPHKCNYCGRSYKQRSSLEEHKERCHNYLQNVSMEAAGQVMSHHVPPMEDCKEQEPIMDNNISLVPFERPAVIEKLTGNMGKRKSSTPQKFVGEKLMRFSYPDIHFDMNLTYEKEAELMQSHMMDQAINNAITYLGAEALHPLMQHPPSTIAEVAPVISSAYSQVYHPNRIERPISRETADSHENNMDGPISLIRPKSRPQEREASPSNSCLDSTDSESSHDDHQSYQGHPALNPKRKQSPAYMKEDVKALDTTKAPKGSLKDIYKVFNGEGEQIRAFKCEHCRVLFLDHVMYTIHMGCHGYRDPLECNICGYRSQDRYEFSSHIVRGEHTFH
T5 sequence (Q96SW2 whole entry): as the sequence (Q96SW2 whole entry) above
T5 sequence (Q16531 whole entry partner): as the sequence (Q16531 whole entry partner) above

[6] = test system: GSPT1; experiment: as above; format: cell-based, Human; conditions: Western blot, 24 hours of compound treatment, compounds tested at 50 nM and 500 nM (concentration for the table not stated)
[7] = test system: Human multiple myeloma cell (MM.1S); experiment: Tumor cell proliferation inhibition (CellTiter-Meiluncell luminescent cell viability assay); conditions: Homo sapiens, MM1.S, 96 h, read-out: Inhibitory activity (IC50, nM) on tumor cell proliferation, MM.1S
[8] = test system: Human breast cancer cell (MCF-7); experiment: as above; conditions: MCF7, 96 h, read-out: Inhibitory activity (IC50, nM) on tumor cell proliferation, MCF7
[9] = test system: Human non-small cell lung cancer cell line: NCI-H1975; experiment: as above; conditions: NCI-H1975, 96 h, read-out: Inhibitory activity (IC50, nM) on tumor cell proliferation, H1975
Experimental: (§1) The tumor cells used herein were cultured in a cell culture medium listed in table 2 at 37°C in an incubator with 5% CO2. Prior to experimentation, all cell lines used were correctly identified by STR profiling, and tested negative for mycoplasma contamination using a mycoplasma detection kit through routine screenings.
(§2) The IC50 values of the compounds of the present disclosure (including the compounds in Table 1 and Examples) were determined using the CellTiter-Meiluncell Luminescent Cell Viability Assay Kit from Dalian Meilun Biotech Co., Ltd. The detailed procedure is as follows: Tumor cells were seeded in 96-well cell culture plates at the densities specified in Table 3. On the following day, the test compounds of the present disclosure were subjected to serial dilution. The dilution can be performed according to one of the following two methods: • (1) The first dilution method: The test compounds of the present disclosure (including the compounds in Table 1 and Examples) were subjected to 5-fold serial dilutions starting from a highest concentration of 2000 µM, resulting in a total of 9 concentrations from high to low (2000, 400, 80, 16, 3.2, 0.64, 0.128, 0.0256, 0.00512 µM). Subsequently, 0.5 µL of the test compound dilution was transferred into the 96-well plate containing the cells, with each well containing 100 µL of cell culture medium. […] Into the 96-well plate, the diluted test compounds and corresponding detection reagents were added, resulting in final test compound concentrations of 500 nM and 10 nM, respectively. The experimental procedure is described below using the diluted 2 µM test compound as an example.
(§3) 0.5 µL of the aforementioned diluted compound of the present disclosure (including the compounds in Table 1 and Examples) was added to the seeded cells in 100 µL of medium, yielding a final test compound concentration of 10 nM. After the cells were treated with the compounds of the present disclosure for a specified period, the cell viability assay reagent was added to the culture medium according to the kit's instructions to determine cell viability. […] All controls were treated using the same procedure as the compounds of the present disclosure. The growth inhibition curves for the compounds of the present disclosure were plotted using Prism GraphPad software, and the IC50 values were calculated therefrom.

[10] = test system: Human mantle cell lymphoma cell line: JEKO-1; experiment: as above; conditions: JeKo-1, 96 h, read-out: Inhibitory activity (IC50, nM) on tumor cell proliferation, JEKO-1
Experimental: as §1, §2, §3

[11] = test system: Human T lymphocytic leukemia cell line: Jurkat; experiment: as above; conditions: 96 h, read-out: Inhibitory activity (IC50, nM) on tumor cell proliferation, Jurkat
[12] = test system: Human gastric cancer cell line: MGC803; experiment: as above; conditions: MGC-803, read-out: Inhibitory activity (IC50, nM) on tumor cell proliferation, MGC803
Experimental: as §2, §3

[13] = target: T6, human Cereblon WT GST-tagged protein (Homo sapiens, UniProt Q96SW2); experiment: CRBN-binding affinity, HTRF (CEREBLON BINDING kit)
T6 construct: purchased CISBIO 64BDCRBNPEH
T6 sequence (Q96SW2 whole entry): as the sequence (Q96SW2 whole entry) above

[14] = CRBN binding, HTRF, 3 hours at room temperature; read-out: HTRF IC50

| Structure (SMILES) | IKZF3 substrate protein remaining % [1] | IKZF 1 substrate protein remaining % [2] | Wee1 substrate protein remaining % [3] | CK1α substrate protein remaining % [4] | IKZF2 substrate protein remaining % [5] | GSPT1 substrate protein remaining % [6] | IC50 [7] | IC50 [8] | IC50 [9] | IC50 [10] | IC50 [11] | IC50 [12] | IC50 ([13]; read-out: HTRF IC50; CRBN binding, HTRF, 3 hours at room temperature) | IC50 [13, 14] |
| --- | --- | --- | --- | --- | --- | --- | --- | --- | --- | --- | --- | --- | --- | --- |
| O=C1CCC(N2Cc3cc(CN4CCC(N(c5ccccc5)c5ccccc5)CC4)ccc3C2=S)C(=O)N1 (stereo not shown) | A (0% ≤ substrate protein remaining % ≤ 80%) | A (0% ≤ substrate protein remaining % ≤ 80%) | A (0% ≤ substrate protein remaining % ≤ 80%) | B (80%< substrate protein remaining %≤ 100%) | A (0% ≤ substrate protein remaining % ≤ 80%) | A (0% ≤ substrate protein remaining % ≤ 80%) | < 5 nM | 10 to 50 nM | 5 to 10 nM | < 5 nM | < 5 nM | 5 to 10 nM | 100 to 500 nM | – |
| O=C1CCC(N2Cc3cc(CN4CCN(c5cccc6sccc56)CC4)ccc3C2=S)C(=O)N1 (stereo not shown) [GT-05088, 3-(5-((4-(benzo[b]thiophen-4-yl)piperazin-1-yl)methyl)-1-thioxoisoindolin-2-yl)piperidine-2,6-dione] | A (0% ≤ substrate protein remaining % ≤ 80%) | A (0% ≤ substrate protein remaining % ≤ 80%) | A (0% ≤ substrate protein remaining % ≤ 80%) | B (80%< substrate protein remaining %≤ 100%) | A (0% ≤ substrate protein remaining % ≤ 80%) | A (0% ≤ substrate protein remaining % ≤ 80%) | 10 to 50 nM | 100 to 500 nM | 50 to 100 nM | 10 to 50 nM | 50 to 100 nM | 100 to 500 nM | – | 100 to 500 nM |
| Cc1ccc(Sc2ccccc2N2CCN(Cc3ccc4c(c3)CN(C3CCC(=O)NC3=O)C4=S)CC2)c(C)c1 (stereo not shown) [GT-05092, 3-(5-((4-(2-((2,4-dimethylphenyl)thio)phenyl)piperazin-1-yl)methyl)-1-thioxoisoindolin-2-yl)piperidine-2,6-dione] | A (0% ≤ substrate protein remaining % ≤ 80%) | A (0% ≤ substrate protein remaining % ≤ 80%) | A (0% ≤ substrate protein remaining % ≤ 80%) | B (80%< substrate protein remaining %≤ 100%) | A (0% ≤ substrate protein remaining % ≤ 80%) | A (0% ≤ substrate protein remaining % ≤ 80%) | 10 to 50 nM | 100 to 500 nM | 50 to 100 nM | 10 to 50 nM | 50 to 100 nM | 100 to 500 nM | – | 500 to 1000 nM |
| O=C1CCC(N2Cc3cc(CN4CCN(C(c5ccccc5)c5ccccc5)CC4)ccc3C2=S)C(=O)N1 (stereo not shown) [GT-05104, 3-(5-((4-benzhydrylpiperazin-1-yl)methyl)-1-thioxoisoindolin-2-yl)piperidine-2,6-dione] | B (80%< substrate protein remaining %≤ 100%) | B (80%< substrate protein remaining %≤ 100%) | A (0% ≤ substrate protein remaining % ≤ 80%) | B (80%< substrate protein remaining %≤ 100%) | B (80%< substrate protein remaining %≤ 100%) | A (0% ≤ substrate protein remaining % ≤ 80%) | < 5 nM | – | 100 to 500 nM | 100 to 500 nM | 100 to 500 nM | 50 to 100 nM | – | 500 to 1000 nM |
| O=C1CCC(N2Cc3cc(CN4CCC(Nc5ccccc5-c5ccc(Cl)cc5)CC4)ccc3C2=S)C(=O)N1 (stereo not shown) [GT-05109, 3-(5-((4-((4'-chloro-[1,1'-biphenyl]-2-yl)amino)piperidin-1-yl)methyl)-1-thioxoisoindolin-2-yl)piperidine-2,6-dione] | A (0% ≤ substrate protein remaining % ≤ 80%) | A (0% ≤ substrate protein remaining % ≤ 80%) | A (0% ≤ substrate protein remaining % ≤ 80%) | A (0% ≤ substrate protein remaining % ≤ 80%) | A (0% ≤ substrate protein remaining % ≤ 80%) | A (0% ≤ substrate protein remaining % ≤ 80%) | < 5 nM | 10 to 50 nM | 5 to 10 nM | 5 to 10 nM | < 5 nM | 10 to 50 nM | – | 500 to 1000 nM |
| Cc1ccc(C2=CCN(Cc3ccc4c(c3)CN(C3CCC(=O)NC3=O)C4=S)CC2)s1 (stereo not shown) [GT-05111, 3-(5-((4-(5-methylthiophen-2-yl)-3,6-dihydropyridin-1(2H)-yl)methyl)-1-thioxoisoindolin-2-yl)piperidine-2,6-dione] | A (0% ≤ substrate protein remaining % ≤ 80%) | A (0% ≤ substrate protein remaining % ≤ 80%) | A (0% ≤ substrate protein remaining % ≤ 80%) | A (0% ≤ substrate protein remaining % ≤ 80%) | A (0% ≤ substrate protein remaining % ≤ 80%) | A (0% ≤ substrate protein remaining % ≤ 80%) | 10 to 50 nM | 100 to 500 nM | 50 to 100 nM | 50 to 100 nM | 50 to 100 nM | 100 to 500 nM | – | 100 to 500 nM |
| Cc1cscc1C1=CCN(Cc2ccc3c(c2)CN(C2CCC(=O)NC2=O)C3=S)CC1 (stereo not shown) [GT-05145, 3-(5-((4-(4-methylthiophen-3-yl)-3,6-dihydropyridin-1(2H)-yl)methyl)-1-thioxoisoindolin-2-yl)piperidine-2,6-dione] | A (0% ≤ substrate protein remaining % ≤ 80%) | A (0% ≤ substrate protein remaining % ≤ 80%) | A (0% ≤ substrate protein remaining % ≤ 80%) | A (0% ≤ substrate protein remaining % ≤ 80%) | A (0% ≤ substrate protein remaining % ≤ 80%) | A (0% ≤ substrate protein remaining % ≤ 80%) | < 5 nM | 10 to 50 nM | 5 to 10 nM | < 5 nM | < 5 nM | 10 to 50 nM | – | < 100 nM |
| O=C1CCC(N2Cc3cc(CN4CC=C(c5ccco5)CC4)ccc3C2=S)C(=O)N1 (stereo not shown) [GT-05147, 3-(5-((4-(furan-2-yl)-3,6-dihydropyridin-1(2H)-yl)methyl)-1-thioxoisoindolin-2-yl)piperidine-2,6-dione] | A (0% ≤ substrate protein remaining % ≤ 80%) | A (0% ≤ substrate protein remaining % ≤ 80%) | A (0% ≤ substrate protein remaining % ≤ 80%) | B (80%< substrate protein remaining %≤ 100%) | A (0% ≤ substrate protein remaining % ≤ 80%) | A (0% ≤ substrate protein remaining % ≤ 80%) | 10 to 50 nM | – | – | 100 to 500 nM | 100 to 500 nM | – | – | < 100 nM |
